Consider one compound from patent publication US10179770B2, “Quinolines derivatives as novel anticancer agents” (GENOSCIENCE PHARMA, priority 2013, dated 2019).

Each structure is given as a SMILES string.

The subject of experiment [1] is SkBr3. In words: CellTiter-Glo cell viability assay (example 57). Format: cell-based. The settings on record: Homo sapiens, SK-BR-3; SkBr3 (Breast); Cell Titer-Glo; 72 h. As to the method: (§1) The human breast cancer cell line SkBr3 and the human metastatic prostate carcinoma cell line LnCAP were cultured in Dulbecco's modified Eagle's medium (DMEM) supplemented with 10% fetal bovine serum (FBS) and 0.1% sodium pyruvate. The human myelocytic cell line U937 and NB4 were maintained in RPMI medium 1640 1× (Gibco 21875-034) supplemented with 10 % Fetal Bovine Serum (FBS, Eurobio S39130-0808) Kasumi and SKM-1 were maintained in RPMI medium 1640 1× (Gibco 21875-034) supplemented with 20 % Fetal Bovine Serum (FBS, Eurobio S39130-0808), HL60 was maintained in Iscove's modified Dulbecco's medium 1× (IMDM, Gibco 21890) supplemented with 20% Fetal Bovine Serum (FBS, Eurobio S39130-0808), cell line was maintained in MEM alpha medium (Gibco 22561-021) supplemented with 10% FBS at 37° C. with 5% CO2. Cell outgrowth was measured using the CellTiter-Glo luminescent cell viability assay as described by the manufacturer (Promega, Ref G7571 Madison, Wis., USA) using a FLUOstar optima luminometer (BMG Labtech, Ortenberg, Germany).
(§2) Briefly, for adherent cells, 10^4 cells were plated onto 96-well plates (white with clear bottom (3610, Corning Costar) in 100 μL of media per well and were allowed to grow overnight before the assay. For cells growing in suspension, 10^4 cells were plated onto 96-well plates immediately before the assay. […] Vehicle (DMSO) was used as a control, and all compounds were tested in a constant percentage of DMSO (1%). After addition of 50 μL of CellTiter GLO, luminescence was measured using a Centro luminometer (Berthold). EC50 values were determined as the dose of compound required to reduce luminescent values to 50% of the signal obtained for untreated cell cultures. All experiments were done in duplicate and repeated two independent times.

Experiment [2] deals with HL60. As to the kind of experiment: CellTiter-Glo cell viability assay (example 57). The experiment is classed as cell-based. The settings on record: Homo sapiens, HL-60; HL60 (Leukemia); Cell Titer-Glo; 72 h. As for the experimental part:
as §1, §2

Experiment [3] relates to Kasumi-1. In words: CellTiter-Glo cell viability assay (example 57). The settings on record: Homo sapiens; Kasumi-1 (Leukemia); Cell Titer-Glo; 72 h. Format: cell-based. As to the method:
as §1, §2

The subject of experiment [4] is U937. As to the kind of experiment: CellTiter-Glo cell viability assay (example 57). The experiment is classed as cell-based. The settings on record: Homo sapiens, U-937; U937 (Leukemia); Cell Titer-Glo; 72 h. As for the experimental part: as §1, §2
The subject of experiment [5] is NB4. As to the kind of experiment: CellTiter-Glo cell viability assay (example 57). The settings on record: Homo sapiens, NB-4; NB4 (Leukemia); Cell Titer-Glo; 72 h. The experiment is classed as cell-based. As for the experimental part:
as §1, §2

Experiment [6] has as its system LNCaP. In words: CellTiter-Glo cell viability assay (example 57). The experiment is classed as cell-based. The settings on record: Homo sapiens; LNCaP (Prostate); Cell Titer-Glo; 72 h. As for the experimental part:
as §1, §2

Experiment [7] has as its system SKM-1. In words: CellTiter-Glo cell viability assay (example 57). The settings on record: Homo sapiens; SKM-1 (Leukemia); Cell Titer-Glo; 72 h. The experiment is classed as cell-based. As to the method:
as §1, §2

In experiment [8] the test system is A375 cell line. In words: Combination of XIX-3 and Zelboraf, Bliss independence model. The settings on record: XIX-3 associated with Zelboraf, 72 h. The experiment is classed as cell-based, human. As for the experimental part: The human melanoma cell lines A375 cultured in Dulbecco's modified Eagle's medium supplemented with 10% Fetal Bovine Serum and 1% Penicillin-Streptomycin and maintained at 37° C. with 5% CO2.
A375 cells were plated at 800 cells per well onto 96-well plates in 90 μL of media per well and were allowed to grow overnight before the assay. XIX-3 and Zelboraf, a compound used for treatment for BRAF V600E mutation-positive metastatic melanoma, were added at different concentrations (combinations of five concentrations of XIX-3 and six concentrations of Zelboraf) to each well, and cell cultures were incubated for 72 h. Vehicle (H2O) was used as a control, and all compounds were tested in a constant percentage of vehicle. Cell outgrowth was measured using a […] Aqueous One Solution Cell Proliferation Assay (Promega) and a TECAN Sunrise plate reader. […] The effects of drug-drug combinations are evaluated in the Bliss independence model (Prichard M. N. and Shipman C. Jr. Antivir. Res. 1990 (14) 181-205; Prichard, M. L. et al. Antimicrob Agents Chemother 1993 (37) 540-545). The theoretical additive effect is calculated from the dose-response curves of individual compounds by the equation: Z=X+Y(1−X) (7) Where: • Z represents the total inhibition produced by the combination of drugs X and Y. • X and Y represent the inhibition produced by drugs X and Y alone, respectively. […]

Take `CCN(CC)C1CCN(C(C)c2cc(-c3ccccc3)nc3ccccc23)CC1.Cl.Cl` (centres unmarked) [XIX-3, 2-phenyl-4-{1-[4-(N,N-diethylamino)piperidin-1-yl]-eth-1-yl}quinoline dihydrochloride]: the 50% effective concentration (EC50) in experiment [1] was determined as 20 µM; in experiment [2], 40 µM; in experiment [3] it was 30 µM; in experiment [4], 35 µM; in experiment [5], 37 µM; in experiment [6], 25 µM. Besides, the EC50 in experiment [7] came to 30 µM. For the same compound, the “Combination effect on cell viability (Bliss independence model)” value in experiment [8] is on record as “additive effect (between −20% to +20% indicates additive effect)”.
